Where two headings read alike, the source gives them in different places.
Legend:
[1] = test system: Caco 2 cells (differentiating colorectal adenocarcinoma); assay: in vitro inhibition of cell proliferation / survival assay; format: cell-based; conditions: for viability at 25 µM / IC50: Homo sapiens; for viability at 25 µM / % of Survival: measured at 25 μM after 48 h, single dose, triplicate; for IC50: 48 h, average of three assays, standard error ± 0.5 μM
Method: (§1) As an initial effort to investigate their in vitro bioactivity, the new synthesized 3-(4-arylmethylamino)butyl-2-thioxo-1,3-thiazolidine-4-one 9a–n and also their precursors 6a–f were evaluated for their in vitro inhibition of cell proliferation. For this study, we used a panel of seven representative tumoral cell lines, namely HuH7 D12 (differential hepato cellular carcinoma), Caco 2 (differentiating colorectal adenocarcinoma), MDA-MBD231 ([…]), HCT 116 (actively proliferating colorectal adenocarcinoma), PC3 (prostate carcinoma), NCI-H727 (lung carcinoma), HaCat keratinocyte and, diploid skin fibroblasts as normal cell lines for control.
(§2) Skin diploid fibroblastic cells were provided by BIOPREDIC International Company (Rennes, France). Caco2 (Ref ECACC: 86010202), Huh-7D12 (Ref ECACC: 01042712), MDA-MB-231 (Ref ECACC: 92020424), HCT-116 (Ref ECACC: 91091005), PC3 (Ref ECACC: 90112714), NCI-H727 (Ref ECACC: 94060303) cell lines were obtained from the ECACC collection and HaCaT (from Cell Lines Service, Eppelheim, Germany). Cells were grown according to ECACC recommendations. The toxicity test of the compounds on these cells was as follows: 2 × 10^3 cells for HCT-116 cells or 4 × 10^3 for the other cells were seeded in 96 multiwell plates in triplicate and left for 24 h for attachment, spreading and growing. Then, cells were exposed for 48 h to increasing concentrations of the compounds, ranging from 0.1 to 25 μM in a final volume of 120 μL of culture medium. Cells were fixed in cooled solution of 90% ethanol/5% acetic acid, nuclei were stained with Hoechst 3342 (Sigma) and counted using automated imaging analysis (Cellomics Arrayscan VTI/HCS Reader, Thermo/Scientific, Waltham, MA, USA). The IC50 were graphically determined.

[2] = test system: HCT 116 cells (actively proliferating colorectal adenocarcinoma); assay: as above; format: cell-based; conditions: for viability at 25 µM / IC50: Homo sapiens; for viability at 25 µM / % of Survival: measured at 25 μM after 48 h, single dose, triplicate; for IC50: 48 h, average of three assays, standard error ± 0.5 μM
Method: as §1, §2

HaCat keratinocyte = assay: as above; format: cell-based; conditions: for viability at 25 µM / IC50: Homo sapiens; for viability at 25 µM / % of Survival: measured at 25 μM after 48 h, single dose, triplicate; for IC50: HaCaT, 48 h, average of three assays, standard error ± 0.5 μM
Method: as §1, §2

[3] = test system: Huh7 D12 cells (differential hepato cellular carcinoma); assay: as above; format: cell-based; conditions: for viability at 25 µM: Huh-7D12, measured at 25 μM after 48 h; for viability at 25 µM / % of Survival: single dose, triplicate; for % of Survival: measured at 25 μM after 48 h; for IC50: Huh-7D12, 48 h, average of three assays, standard error ± 0.5 μM
Method: as §1, §2

MDA-MB231 cells = assay: as above; format: cell-based; conditions: for viability at 25 µM / IC50: Homo sapiens; for viability at 25 µM: MDA-MB-231, measured at 25 μM after 48 h; for viability at 25 µM / % of Survival: single dose, triplicate; for % of Survival: measured at 25 μM after 48 h; for IC50: MDA-MB-231, 48 h, average of three assays, standard error ± 0.5 μM
Method: as §1, §2

[4] = test system: NCI-H727 cells (lung carcinoma); assay: as above; format: cell-based; conditions: for viability at 25 µM: Homo sapiens, read-out: % of Survival
Method: as §1, §2

[5] = test system: PC3 cells (prostate carcinoma); assay: as above; format: cell-based; conditions: for viability at 25 µM: PC-3, measured at 25 μM after 48 h; for viability at 25 µM / % of Survival: single dose, triplicate; for % of Survival: measured at 25 μM after 48 h
Method: as §1, §2

diploid skin fibroblasts = assay: in vitro inhibition of cell proliferation / survival assay, normal cells control; format: cell-based; conditions: for viability at 25 µM: read-out: % of Survival
Method: as §1, §2

[6] = NCI-H727, measured at 25 μM after 48 h, single dose, triplicate
[7] = Skin fibroblast, Fibroblasts, measured at 25 μM after 48 h, single dose, triplicate
[8] = Fibroblasts, measured at 25 μM after 48 h, single dose, triplicate

| melting point | SMILES | viability at 25 µM [1] [%] | viability at 25 µM [2] [%] | viability at 25 µM (HaCat keratinocyte) [%] | viability at 25 µM [3] [%] | viability at 25 µM (MDA-MB231 cells) [%] | viability at 25 µM [4, 6] [%] | viability at 25 µM ([5]; Homo sapiens) [%] | viability at 25 µM (diploid skin fibroblasts; [7]) [%] | other results |
| --- | --- | --- | --- | --- | --- | --- | --- | --- | --- | --- |
| > 260 °C | Cl.NCCCCNCc1ccccc1 [Compound 6a, N-1-Phenylmethyl-butane-1,4-diamine hydrochloride] | 114 | 112 | 97 | 102 | 104 | 97 | 100 | 93 |  |
|  | COc1ccc(CNCCCCN)cc1.Cl [Compound 6b, N-1-(4-Methoxy-phenylmethyl)-butane1,4-diamine hydrochloride] |  |  |  |  |  |  |  |  | % of Survival [1]: 114%; % of Survival [2]: 112%; % of Survival (HaCat keratinocyte): 106%; % of Survival [3]: 107%; % of Survival (MDA-MB231 cells): 100%; % of Survival [4, 6]: 86%; % of Survival [5]: 100%; % of Survival (diploid skin fibroblasts; [8]): 100% |
|  | Cl.NCCCCNCc1ccccc1Cl [Compound 6c, N-1-(2-Chloro-phenylmethyl)-butane1,4-diamine hydrochloride] |  |  |  |  |  |  |  |  | % of Survival [1]: 93%; % of Survival [2]: 98%; % of Survival (HaCat keratinocyte): 80%; % of Survival [3]: 82%; % of Survival (MDA-MB231 cells): 102%; % of Survival [4, 6]: 100%; % of Survival [5]: 96%; % of Survival (diploid skin fibroblasts; [8]): 84% |
|  | COc1cccc(CNCCCCN)c1.Cl [Compound 6d, N-1-(3-Methoxy-phenylmethyl)-butane-1,4-diamine hydrochloride] |  |  |  |  |  |  |  |  | % of Survival [1]: 111%; % of Survival [2]: 111%; % of Survival (HaCat keratinocyte): 96%; % of Survival [3]: 107%; % of Survival (MDA-MB231 cells): 99%; % of Survival [4, 6]: 92%; % of Survival [5]: 98%; % of Survival (diploid skin fibroblasts; [8]): 93% |
| > 260 °C | Cl.NCCCCNCc1ccc2c(c1)OCO2 [Compound 6e, N-1-Benzo[1,3]dioxol-5-ylmethyl-butane-1,4-diamine hydrochloride] | 106 | 102 | 96 | 91 | 102 | 98 | 96 | 93 |  |
|  | Cl.NCCCCNCc1ccc2c(c1)OCCO2 [Compound 6f, N-1-(2,3-Dihydro-benzo[1,4]dioxin-6-ylmethyl)-butane-1,4-diamine hydrochloride] |  |  |  |  |  |  |  |  | % of Survival [1]: 109%; % of Survival [2]: 96%; % of Survival (HaCat keratinocyte): 94%; % of Survival [3]: 88%; % of Survival (MDA-MB231 cells): 99%; % of Survival [4, 6]: 92%; % of Survival [5]: 97%; % of Survival (diploid skin fibroblasts; [8]): 105% |
| 170 to 229 °C (dec.) | COc1ccc(CNCCCCN2C(=O)/C(=C/c3ccc4c(c3)OCO4)SC2=S)cc1 [Compound 9a, (5Z)3-[4-(4-Methoxyphenylmethylamino)butyl]-5-(1,3-benzodioxol-5-ylmethylene)-2-thioxo-1,3-thiazolidin-4-one] | 109 | 109 | 103 | 85 | 100 | 104 | 92 | 104 |  |
| 253 to 255 °C | COc1ccc(/C=C2\SC(=S)N(CCCCNCc3ccc(OC)cc3)C2=O)cc1 [Compound 9b, (5Z)3-[4-(4-Methoxyphenylmethylamino)butyl]-5-(4-methoxybenzylidene)-2-thioxo-1,3-thiazolidin-4-one] | 108 | 102 | 104 | 105 | 97 | 90 | 99 | 167 |  |
| 255 to 261 °C | COc1ccc(CNCCCCN2C(=O)/C(=C/c3ccc4c(c3)OCCO4)SC2=S)cc1 [Compound 9c, (5Z)3-[4-(4-Methoxyphenylmethylamino)butyl]-5-(2,3-dihydro-1,4-benzodioxin-6-ylmethylene)-2-thioxo-1,3-thiazolidin-4-one] | 93 | 97 | 101 | 88 | 92 | 95 | 97 | 102 |  |
|  | COc1cccc(CNCCCCN2C(=O)/C(=C/c3ccc4c(c3)OCO4)SC2=S)c1 [Compound 9e, (5Z)3-[4-(3-Methoxyphenylmethylamino)butyl]-5-(1,3-benzodioxol-5-ylmethylene)-2-thioxo-1,3-thiazolidin-4-one] | 97 | 99 | 86 | 74 | 97 | 102 | 85 | 122 |  |
|  | O=C1/C(=C/c2ccc3c(c2)OCO3)SC(=S)N1CCCCNCc1ccc2c(c1)OCCO2 [Compound 9l, (5Z)-[4-(2,3-Dihydro-benzo[1,4]dioxin-6-ylmethylamino)butyl]-5-(1,3-benzodioxol-5-ylmethylene)-2-thioxo-1,3-thiazolidin-4-one] | 105 | 106 | 95 | 90 | 98 | 96 | 93 | 128 |  |
|  | O=C1/C(=C/c2ccc3c(c2)OCCO3)SC(=S)N1CCCCNCc1ccc2c(c1)OCCO2 [Compound 9m, (5Z)3-[4-(2,3-Dihydro-benzo[1,4]dioxin-6-ylmethylamino)butyl]-5-(2,3-dihydro-benzo[1,4]dioxin-6-ylmethylene)-2-thioxo-1,3-thiazolidin-4-one] | 107 | 103 | 94 | 97 | 99 | 98 | 96 | 149 |  |
|  | COc1cccc2c1C(=O)c1c(O)c3c(c(O)c1C2=O)C[C@@](O)(C(=O)CO)C[C@@H]3O[C@H]1C[C@H](N)[C@H](O)[C@H](C)O1 [Doxorubicine, reference compound] | 43 | 22 | 88 | 63 | 82 | 65 | 34 | 74 | IC50 [1]: 30 nM; IC50 [2]: 30 nM; IC50 (HaCat keratinocyte): 20 nM; IC50 [3]: 30 nM; IC50 (MDA-MB231 cells): 10 nM |
|  | CC[C@H](CO)Nc1nc(NCc2ccccc2)c2ncn(C(C)C)c2n1 [Roscovitine, reference compound] |  |  |  |  |  |  |  |  | viability at 25 µM ([4]; NCI-H727, 48 h): 30%; viability at 25 µM (diploid skin fibroblasts; Skin fibroblast, 48 h): 53% |
|  | CC(=O)O[C@H]1C(=O)[C@@]2(C)[C@H]([C@H](OC(=O)c3ccccc3)[C@]3(O)C[C@H](OC(=O)[C@H](O)[C@@H](NC(=O)c4ccccc4)c4ccccc4)C(C)=C1C3(C)C)[C@]1(OC(C)=O)CO[C@@H]1C[C@@H]2O [Taxol, reference compound] | 29 | 9 | 11 | 36 | 41 | 59 | 35 | 76 | IC50 [1]: 40 nM; IC50 [2]: < 1 nM; IC50 (HaCat keratinocyte): 1 nM; IC50 [3]: 3 nM; IC50 (MDA-MB231 cells): 40 nM; IC50 ([5]; Homo sapiens, PC-3, 48 h, average of three assays, standard error ± 0.5 μM): < 1 nM; IC50 (diploid skin fibroblasts; Skin fibroblast, Fibroblasts, 48 h, average of three assays, standard error ± 0.5 μM): > 25000 nM |

— publication PMC6332318, “Synthetic Development of New 3-(4-Arylmethylamino)butyl-5-arylidene-rhodanines under Microwave Irradiation and Their Effects on Tumor Cell Lines and against Protein Kinases” (Molecules, 2015)
